In patent US20220389009A1, “SUBSTITUTED 1,6-NAPHTHYRIDINE INHIBITORS OF CDK5” (Goldfinch Bio, Inc., priority 2019, published 2022):
Where two headings read alike, the source gives them in different places.

Columns and labels:
[1] = biological target: CDK5/p25 (Homo sapiens, UniProt Q00535); assay: CDK5 mobility shift assay (enzymatic activity of CDK5/p25); assay type: biochemical; details: for IC50: 0.154 nM CDK5/p25, FL peptide 29, 60 min at room temperature, read-out: CDK5 IC50
Experimental: (§1) Compound potency was measured via a change in the enzymatic activity of CDK5/p25, and optionally of CDK2/CycA2. Enzymes, CDK5/p25 and CDK2/CycA2, were sourced from Carna Biosciences (Cat #04-106 and 04-103, respectively). Test compound stocks were diluted in 100% DMSO and serially diluted 3-fold in a 384-well plate using a TECAN EVO200 (TECAN). Staurosporine was used as a reference control compound in all assays.
(§2) Twenty nL of compound were transferred into a 384-well plate (Greiner 781201) using an Echo550 (Labcyte Inc). Enzyme, ATP, and 10 mM MgCl2 were preincubated at room temperature with the compound in assay buffer (50 mM HEPES pH 7.5, 1 mM EGTA, 0.01% Brij-35, 0.05% BSA, 2 mM DTT) for 30 minutes. Peptide substrate (FL peptide 29 (Perkin Elmer) for CDK5/p25; FL Peptide 18 (Perkin Elmer) for CDK2/CycA2) was added to initiate the reaction. The final assay contained 0.154 nM CDK5/p25 or 1.25 nM CDK2/CycA2, […] (for CDK5/p25) or 37 μM (for CDK2/CycA2) ATP, and 1.5 μM of the appropriate peptide substrate. The final DMSO concentration was <1%.
(§3) The CDK5/p25 reaction was incubated at room temperature for 60 min. The CDK2/CycA2 reaction was incubated at room temperature for 120 min. The reactions were quenched by the addition of 70 μL stopping buffer containing 0.5 M EDTA. Samples were analyzed using the EZ Reader (Perkin Elmer).
(§4) The results were expressed as % vehicle, where % vehicle=100×(U−C2)/(C1−C2), where U is the signal of sample, C1 is the average of the high controls (signal with no compound added), and C2 is the average of low controls (signal with the buffer in place of enzyme). The ICso is determined by fitting the percentage of inhibition as a function of compound concentrations using a 4-parameter fit defined as follows.
(§5) Y=Bottom+(Top−Bottom)/(1+10^((LobIC50-X)*Hill Slope)), where X is the log of the compound concentration, Y is the % vehicle or response at X, Top and Bottom are the plateaus in the same units as Y, and the Hill's Slope is unitless, and the ICso is the half-maximal inhibitory concentration.

[2] = biological target: CDK2/CycA2 (Homo sapiens, UniProt P24941); assay: CDK2 mobility shift assay (enzymatic activity of CDK2/CycA2); assay type: biochemical; details: 1.25 nM CDK2/CycA2, 37 μM ATP, FL Peptide 18, 120 min at room temperature; read-out: CDK2 IC50
Experimental: as §1, §2, §3, §4, §5

[3] = fold more active against CDK5 than CDK2

CDK5/p25, sequence (Q00535 whole entry): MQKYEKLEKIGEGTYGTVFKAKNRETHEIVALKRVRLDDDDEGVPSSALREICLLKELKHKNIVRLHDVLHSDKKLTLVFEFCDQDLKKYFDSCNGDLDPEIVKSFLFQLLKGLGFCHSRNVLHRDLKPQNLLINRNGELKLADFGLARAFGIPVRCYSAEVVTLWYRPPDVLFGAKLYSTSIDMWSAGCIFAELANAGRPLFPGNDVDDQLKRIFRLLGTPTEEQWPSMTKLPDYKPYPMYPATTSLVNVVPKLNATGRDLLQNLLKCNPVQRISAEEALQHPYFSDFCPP
CDK5/p25, sequence (Q15078 99-307 partner limits assumed): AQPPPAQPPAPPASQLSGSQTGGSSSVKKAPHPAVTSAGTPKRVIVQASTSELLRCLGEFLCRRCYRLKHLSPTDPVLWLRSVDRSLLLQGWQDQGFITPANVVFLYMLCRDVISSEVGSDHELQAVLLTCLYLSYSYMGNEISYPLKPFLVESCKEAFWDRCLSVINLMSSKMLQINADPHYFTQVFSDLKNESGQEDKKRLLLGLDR

Compound	IC50 [1]	IC50 [2]	CDK5/CDK2 specificity [1, 3]	CDK5/CDK2 specificity [1]
OCCN1CCC(Sc2ccc3cnc(Nc4ccc(-n5ccc(CO)n5)cc4F)cc3n2)CC1 [Compound 138, 2-(4-[[7-([2-fluoro-4-[3-(hydroxymethyl)pyrazol-1-yl]phenyl]amino)-1,6-naphthyridin-2-yl]sulfanyl]piperidin-1-yl)ethanol]	< 10 nM	10 to 100 nM	++ (greater than 10-fold and less than or equal to 100-fold more active against CDK5 than CDK2)	–
N#CCN(c1ccc2cnc(Nc3ccc(-n4ccc(CO)n4)cc3F)cc2n1)C1CCNCC1 [Compound 162, 2-[[7-([2-fluoro-4-[3-(hydroxymethyl)pyrazol-1-yl]phenyl]amino)-1,6-naphthyridin-2-yl](piperidin-4-yl)amino]acetonitrile]	100 to 1000 nM	> 1000 nM	++ (greater than 10-fold and less than or equal to 100-fold more active against CDK5 than CDK2)	–
CN(c1ccc2cnc(Nc3ccccc3F)cc2n1)C1CCNCC1 [Compound 100, N7-(2-fluorophenyl)-N2-methyl-N2-(piperidin-4-yl)-1,6-naphthyridine-2,7-diamine]	100 to 1000 nM	> 1000 nM	++ (greater than 10-fold and less than or equal to 100-fold more active against CDK5 than CDK2)	–
COC(c1ccc2cnc(Nc3ccc(-n4cccn4)cc3F)cc2n1)C1CCN(C)CC1 (single isomer, unassigned) [Compound 391, N-[2-fluoro-4-(pyrazol-1-yl)phenyl]-2-[methoxy(1-methylpiperidin-4-yl)methyl]-1,6-naphthyridin-7-amine]	100 to 1000 nM	> 1000 nM	++ (greater than 10-fold and less than or equal to 100-fold more active against CDK5 than CDK2)	–
CN1CCC(/C(=N/O)c2ccc3cnc(Nc4ccc(-n5cccn5)cc4F)cc3n2)CC1 [Compound 381]	10 to 100 nM	100 to 1000 nM	+ (10-fold or less more active against CDK5 than CDK2)	–
CN1CCC(S(=O)(=O)c2ccc3cnc(Nc4cccc(N5CCOC5=O)c4)cc3n2)CC1 [Compound 284]	< 10 nM	10 to 100 nM	++ (greater than 10-fold and less than or equal to 100-fold more active against CDK5 than CDK2)	–
CN1CCC(C(O)(c2ccc3cnc(Nc4ccc(-n5cccn5)cc4F)cc3n2)C(F)(F)F)CC1 (single isomer, unassigned) [Compound 349, 2,2,2-trifluoro-1-(7-((2-fluoro-4-(1H-pyrazol-1-yl)phenyl)amino)-1,6-naphthyridin-2-yl)-1-(1-methylpiperidin-4-yl)ethan-1-ol]	< 10 nM	10 to 100 nM	++ (greater than 10-fold and less than or equal to 100-fold more active against CDK5 than CDK2)	–
CN1CCC(C(C)(F)c2ccc3cnc(Nc4ccc(-n5cccn5)cc4F)cc3n2)CC1 (single isomer, unassigned) [Compound 359, 2-[1-fluoro-1-(1-methylpiperidin-4-yl)ethyl]-N-[2-fluoro-4-(pyrazol-1-yl)phenyl]-1,6-naphthyridin-7-amine]	< 10 nM	10 to 100 nM	++ (greater than 10-fold and less than or equal to 100-fold more active against CDK5 than CDK2)	–
CC(c1ccc2cnc(Nc3ccc(-n4cccn4)cc3F)cc2n1)C1CCN(C)CC1 (stereo not drawn) [Compound 386]	< 10 nM	100 to 1000 nM	++ (greater than 10-fold and less than or equal to 100-fold more active against CDK5 than CDK2)	–
CN1CCC(S(=O)(=O)c2ccc3cnc(Nc4ccccc4)cc3n2)CC1 [Compound 385]	< 10 nM	10 to 100 nM	++ (greater than 10-fold and less than or equal to 100-fold more active against CDK5 than CDK2)	–
CN1CCC(S(=O)(=O)c2ccc3cnc(Nc4ccccc4F)cc3n2)CC1 [Compound 299]	< 10 nM	100 to 1000 nM	++ (greater than 10-fold and less than or equal to 100-fold more active against CDK5 than CDK2)	–
3-fluoro-4-([2-[(1R)-1-hydroxy-1-(1-methylpiperidin-4-yl)ethyl]-1,6-naphthyridin-7-yl]amino)-[1,1-biphenyl]-3-carboxylic acid [Compound 360]	< 10 nM	10 to 100 nM	–	++ (greater than 10-fold and less than or equal to 100-fold more active against CDK5 than CDK2)
CC1CCN(c2ccc(Nc3cc4nc(S(=O)(=O)C5CCN(C)CC5)ccc4cn3)cc2)CC1 [Compound 308]	< 10 nM	100 to 1000 nM	+++ (greater than 100-fold more active against CDK5 than CDK2)	–
CN1CCC(S(=O)(=O)c2ccc3cnc(Nc4cnc5ccc(Cl)nn45)cc3n2)CC1 [Compound 286]	> 1000 nM	> 1000 nM	+ (10-fold or less more active against CDK5 than CDK2)	–

More lines, main results first:

IC50 [1]	IC50 [2]	Compound	CDK5/CDK2 specificity [1, 3]	CDK5/CDK2 specificity [1]
< 10 nM	100 to 1000 nM	COc1cccc(-c2ccc(Nc3cc4nc(S(=O)(=O)C5CCN(CC6COC6)CC5)ccc4cn3)c(F)c2)n1 [Compound 336]	+++ (greater than 100-fold more active against CDK5 than CDK2)	–
100 to 1000 nM	> 1000 nM	OCc1ccn(-c2ccc(Nc3cc4nc(C(CO)C5CCNCC5)ccc4cn3)c(F)c2)n1 (stereo not drawn) [Compound 142]	+ (10-fold or less more active against CDK5 than CDK2)	–
< 10 nM	10 to 100 nM	CN1CCC(S(=O)(=O)c2ccc3cnc(Nc4ccc(N5CCOCC5)cc4)cc3n2)CC1 [Compound 262]	++ (greater than 10-fold and less than or equal to 100-fold more active against CDK5 than CDK2)	–
< 10 nM	100 to 1000 nM	CN1CCC(C(C)(O)c2ccc3cnc(Nc4cccc(N5CCOCC5)c4)cc3n2)CC1 (stereo not drawn) [Compound 348]	++ (greater than 10-fold and less than or equal to 100-fold more active against CDK5 than CDK2)	–
< 10 nM	10 to 100 nM	CN1CCC(S(=O)(=O)c2ccc3cnc(Nc4ccc(N5CCOC5=O)cc4)cc3n2)CC1 [Compound 307]	++ (greater than 10-fold and less than or equal to 100-fold more active against CDK5 than CDK2)	–
< 10 nM	10 to 100 nM	N[C@H]1CC[C@@H](Sc2ccc3cnc(Nc4ccc(-n5cccn5)cc4F)cc3n2)CC1 [Compound 121, N-[2-fluoro-4-(pyrazol-1-yl)phenyl]-2-[[(1s,4s)-4-aminocyclohexyl]sulfanyl]-1,6-naphthyridin-7-amine]	+ (10-fold or less more active against CDK5 than CDK2)	–
< 10 nM	10 to 100 nM	CN1CCC(C(C)(O)c2ccc3cnc(Nc4ccc(-c5cccc(=O)[nH]5)cc4F)cc3n2)CC1 (stereo not drawn) [Compound 393]	++ (greater than 10-fold and less than or equal to 100-fold more active against CDK5 than CDK2)	–
< 10 nM	10 to 100 nM	CC(C)c1ccc(Nc2cc3nc(S(=O)(=O)C4CCN(C)CC4)ccc3cn2)cc1 [Compound 298]	+++ (greater than 100-fold more active against CDK5 than CDK2)	–
10 to 100 nM	100 to 1000 nM	CN1CCC(NS(=O)(=O)c2ccc3cnc(Nc4ccc(-n5ccc(CO)n5)cc4F)cc3n2)C1 (stereo not drawn) [Compound 248]	+ (10-fold or less more active against CDK5 than CDK2)	–
